For series [1], the target named is T1, 17-beta-hydroxysteroid dehydrogenase type 1 (Homo sapiens) (UniProt P14061).
T1 sequence (whole entry): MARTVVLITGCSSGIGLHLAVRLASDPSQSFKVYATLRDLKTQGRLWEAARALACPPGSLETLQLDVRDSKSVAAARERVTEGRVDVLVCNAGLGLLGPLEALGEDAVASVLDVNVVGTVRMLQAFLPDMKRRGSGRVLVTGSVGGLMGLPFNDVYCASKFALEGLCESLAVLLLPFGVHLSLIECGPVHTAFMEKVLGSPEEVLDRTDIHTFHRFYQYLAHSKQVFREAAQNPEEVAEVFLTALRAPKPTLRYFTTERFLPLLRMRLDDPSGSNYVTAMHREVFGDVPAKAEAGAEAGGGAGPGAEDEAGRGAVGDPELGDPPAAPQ
The series is described as follows: Inhibition of human recombinant 17-beta-HSD1 expressed in human HeLa cells using estrone as substrate preincubated for 30 mins prior substrate addition measured after 120 mins by spectrophotometry. Type of series: cell-based.

Series [2] concerns the target T2, Estrogen receptor (Homo sapiens) (UniProt P03372).
T2 sequence (whole entry): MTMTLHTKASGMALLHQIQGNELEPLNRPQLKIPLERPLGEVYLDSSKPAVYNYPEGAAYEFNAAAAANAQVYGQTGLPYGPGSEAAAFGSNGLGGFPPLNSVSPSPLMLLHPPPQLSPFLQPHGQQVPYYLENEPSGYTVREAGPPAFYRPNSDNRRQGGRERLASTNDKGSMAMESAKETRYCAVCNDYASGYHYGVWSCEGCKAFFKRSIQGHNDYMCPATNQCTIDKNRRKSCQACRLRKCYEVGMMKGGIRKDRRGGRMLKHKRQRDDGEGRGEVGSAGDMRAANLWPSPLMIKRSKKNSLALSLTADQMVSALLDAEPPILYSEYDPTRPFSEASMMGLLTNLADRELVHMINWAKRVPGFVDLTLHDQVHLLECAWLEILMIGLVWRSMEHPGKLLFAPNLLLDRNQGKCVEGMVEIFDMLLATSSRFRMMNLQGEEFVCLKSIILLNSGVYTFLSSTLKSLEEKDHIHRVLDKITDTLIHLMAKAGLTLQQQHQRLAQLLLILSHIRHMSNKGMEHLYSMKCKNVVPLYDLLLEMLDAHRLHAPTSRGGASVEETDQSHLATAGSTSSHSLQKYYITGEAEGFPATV
Kind of series: Antagonist activity at human ERalpha receptor expressed in human HeLa cells assessed as inhibition of DHT-induced response after 40 hrs by luciferase/beta-galactosidase-based reporter gene assay. The series is classed as functional, cell-based.

Series [3] in a line: Tmax in Sprague-Dawley rat at 10 mg/kg, po. The series is classed as ADME, organism-based. Set-up: dose 10 mg/kg, route oral. The settings on record: in vivo.
Series [4] can be described thus: Cmax in Sprague-Dawley rat at 10 mg/kg, po. Type of series: ADME, organism-based. More on the design: dose 10 mg/kg, route oral. The settings on record: in vivo.
A short description of series [5]: AUC (0 to 24 hrs) in Sprague-Dawley rat at 10 mg/kg, po. Type of series: ADME, organism-based. More on the design: time < 24 hr, dose 10 mg/kg, route oral. The settings on record: plasma.
The nature of series [6]: Oral bioavailability in Sprague-Dawley rat at 10 mg/kg. The series is classed as ADME, organism-based. To be noted: in vivo.
Series [7] has as its target T3, 17-beta-hydroxysteroid dehydrogenase type 3 (Homo sapiens, UniProt P37058).
T3 sequence (P37058 whole entry): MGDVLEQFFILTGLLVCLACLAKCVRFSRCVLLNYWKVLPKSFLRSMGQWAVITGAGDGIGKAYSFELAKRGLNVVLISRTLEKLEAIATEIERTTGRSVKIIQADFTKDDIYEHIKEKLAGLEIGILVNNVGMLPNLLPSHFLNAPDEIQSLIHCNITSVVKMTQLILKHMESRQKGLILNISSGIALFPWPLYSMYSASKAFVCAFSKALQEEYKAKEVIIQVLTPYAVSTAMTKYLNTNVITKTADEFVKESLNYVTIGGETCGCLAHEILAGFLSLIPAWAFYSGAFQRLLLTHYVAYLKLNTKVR
Description: Inhibition of human recombinant 17-beta-HSD3 expressed in human HeLa cells using androstenedione as substrate preincubated for 30 mins prior substrate addition measured after 120 mins by spectrophotometry

For series [8], the system named is Rattus norvegicus. The series is described as follows: Tmax in Sprague-Dawley rat assessed as 5-(3,5-Dichloro-4-hydroxybenzylidene)-3-(4-methoxyphenyl)-2-thioxo-1,3-oxazolidin-4-one concentration at 10 mg/kg, po. The series is classed as ADME, organism-based. More on the design: dose 10 mg/kg, route oral. To be noted: in vivo.
Series [9] has as its system Rattus norvegicus. Kind of series: Cmax in Sprague-Dawley rat assessed as 5-(3,5-Dichloro-4-hydroxybenzylidene)-3-(4-methoxyphenyl)-2-thioxo-1,3-oxazolidin-4-one concentration at 10 mg/kg, po. The series is classed as ADME, organism-based. Set-up: dose 10 mg/kg, route oral. The settings on record: in vivo.
Series [10] has as its system Rattus norvegicus. The series is described as follows: AUC (0 to 24 hrs) in Sprague-Dawley rat assessed as 5-(3,5-Dichloro-4-hydroxybenzylidene)-3-(4-methoxyphenyl)-2-thioxo-1,3-oxazolidin-4-one concentration at 10 mg/kg, po. Type of series: ADME, organism-based, Plasma. More on the design: time < 24 hr, dose 10 mg/kg, route oral. The settings on record: in vivo.
Series [11] has as its system Rattus norvegicus. Kind of series: Oral bioavailability in Sprague-Dawley rat assessed as 5-(3,5-Dichloro-4-hydroxybenzylidene)-3-(4-methoxyphenyl)-2-thioxo-1,3-oxazolidin-4-one concentration at 10 mg/kg. Type of series: ADME, organism-based. The settings on record: in vivo.
Series [12] has as its system Rattus norvegicus. Kind of series: Inhibition of LH-RH agonist leuprorelin-induced testosterone steroidogenesis in Sprague-Dawley rat drug administered po 1 hr prior leuprorelin-induction measured up to 240 mins by GC/MS analysis. The series is classed as functional, organism-based.
In series [13] the test system is Rattus norvegicus. Kind of series: Inhibition of LH-RH agonist leuprorelin-induced testosterone steroidogenesis in Sprague-Dawley rat at 100 mg/kg, po administered 1 hr prior leuprorelin-induction measured up to 240 mins by GC/MS analysis relative to CB7630. Type of series: functional.
Series [14] relates to Rattus norvegicus. Kind of series: Inhibition of LH-RH agonist leuprorelin-induced testosterone steroidogenesis in Sprague-Dawley rat at 100 mg/kg, po administered 1 hr prior leuprorelin-induction measured after 240 mins by GC/MS analysis relative to control. More on the design: scale not given: the % may be the effect or the level left.

Each structure is given as a SMILES string. The source made the active and inactive calls. The rule behind the calls is not given here.

For `COc1ccc(N2C(=O)/C(=C/c3cc(Cl)c(O)c(Cl)c3)OC2=S)cc1`, in [1], the inhibition result was “inactive”. For the same compound, in series [2], the result was inactive. The Tmax in [3] is 1 h. The concentration in series [4] peaked (Cmax) at 400 ng/mL. The exposure AUC(0-t) at 24 h in series [5] stood at 4000 ng·h/mL. The compound further gave a bioavailability in series [6] of 5.5%. In addition, the IC50 in [7] was determined as 12 nM.

On to `COc1ccc(N2C(=O)/C(=C/c3cc(Cl)c(OP(=O)(O)O)c(Cl)c3)OC2=S)cc1`, for which the inhibition result in series [1] is “inactive”. The outcome in series [2] was inactive. In the series on Rattus norvegicus [8], the Tmax was determined as 1 h. Moreover, the Cmax with Rattus norvegicus [9] stood at 5250 ng/mL. Further, the AUC with Rattus norvegicus [10] was 18800 ng·h/mL. In addition, the F with Rattus norvegicus [11] was found to be 35.1%. Also, in the series with Rattus norvegicus [12], the inhibition entry is “Dose-dependent effect”. In the series on Rattus norvegicus [13], the “fold change (FC)” value was 2. The compound further registered an Activity in the series with Rattus norvegicus [14] of 10%.

The record behind these values is ChEMBL document CHEMBL2016457, “Discovery of potent and orally bioavailable 17β-hydroxysteroid dehydrogenase type 3 inhibitors” (Bioorg Med Chem, 2012).
